Tests used:
[1] = system: 3H3Md-TET (DNA, aptamer) CGGTGGTGCGGTGGTGAAACACCAAAACACCAAAA; test: ThT displacement fluorescence; conditions: 10 mM Tris-HCl pH 7.4; 12.5 μM compound; ThT displaced
[2] = system: H-BB (DNA, hairpin) ACATAATTTAATATTTATGTTAACATAAATATTAAATTATGT; test: UV-vis absorption shift; conditions: 10 mM Tris-HCl pH 7.4; 2.5 μM ThT in UV-vis
[3] = system: 6H3M0 (DNA, hairpin) TTTTTTTTTTTTTTTTTTTTTTTTTAAAAAAAAAAAAAAAAAAAAAAAAAAAAAAA; test: ThT fluorescence enhancement; conditions: 10 mM Tris-HCl pH 7.4, room temperature; 1 μM DNA, 1 μM ThT

| binding [1] | binding [2] | binding [3] | SMILES |
| --- | --- | --- | --- |
| weak | – | – | CN(C)[C@@H]1C(=O)C(C(N)=O)=C(O)[C@@]2(O)C(=O)C3=C(O)c4c(O)cccc4[C@@](C)(O)[C@H]3[C@H](O)[C@@H]12 |
| weak | – | – | C[C@H]1c2cccc(O)c2C(=O)C2=C(O)[C@]3(O)C(=O)C(C(N)=O)=C(O)[C@@H](N(C)C)[C@@H]3[C@@H](O)[C@@H]21 |
| – | weak | weak | Cc1ccc2c(c1)sc(-c1ccc(N(C)C)cc1)[n+]2C |
